Laboratory results: US9861706B2, “GLP-1 receptor agonist peptide gastrin conjugates” (priority 2011, dated 2018)
Read-outs that look alike come from different tables or passages of the source. Square brackets hold non-standard residues; d marks the D form. Ends that are not written are not given here. AEEA = NCCOCCOCC(=O)O

T1: human CCK-B receptor (human, UniProt P32239 1-447)
T1 sequence (looked up): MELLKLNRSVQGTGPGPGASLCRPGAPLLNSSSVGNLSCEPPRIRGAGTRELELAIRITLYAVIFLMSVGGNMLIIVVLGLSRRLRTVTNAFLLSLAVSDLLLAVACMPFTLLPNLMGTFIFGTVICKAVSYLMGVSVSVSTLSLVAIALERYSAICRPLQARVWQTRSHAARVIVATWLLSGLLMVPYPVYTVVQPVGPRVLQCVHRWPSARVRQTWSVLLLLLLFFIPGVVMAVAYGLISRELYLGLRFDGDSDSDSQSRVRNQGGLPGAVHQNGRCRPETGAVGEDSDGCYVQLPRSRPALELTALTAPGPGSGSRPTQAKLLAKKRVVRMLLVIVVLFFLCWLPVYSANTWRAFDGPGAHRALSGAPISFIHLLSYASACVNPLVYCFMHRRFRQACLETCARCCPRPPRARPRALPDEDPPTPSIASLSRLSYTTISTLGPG


Legend:
[1] = Pharmacokinetics in mice after single subcutaneous dose; format: in vivo, C57BI L/6J mice; conditions: C57BL/6J, mouse, sc
Protocol: At each time point, samples from two mice were taken. […] Plasma samples were analyzed after solid phase extraction (SPE) by liquid chromatography mass spectrometry (LC-MS/MS).

db/db mice = assay: Three weeks in vivo db/db mouse study
Protocol: Treatment Db/db mice were stratified to various treatment groups according to HbA1c levels. Mice were treated once daily with subcutaneous (SC) injections for a total of 21 days. Injection volume was 5 ml/kg. During the study body weights (BW) were recorded daily and used to administer the body weight-corrected doses of peptide. OGTT On day 16, an oral glucose tolerance test was performed in the animals. Blood glucose was measured before glucose (at t=0, baseline) and after glucose administration up to 2 hrs. Termination At termination the blood glucose levels were measured, and blood samples were analyzed for HbA1c levels. Measurements Whole blood glucose concentration (mM) was determined by the immobilized glucose oxidase method (Elite Autoanalyser, Bayer, Denmark). Blood samples were analyzed for HbA1c using the Cobas c111 analyzer (Roche Diagnostics, Mannheim, Germany).

human CCK-B receptor = molecular target: T1, human CCK-B receptor; assay: cell-based or functional assay
human GLP-1 receptor = human GLP-1 receptor (human, UniProt P43220 24-463); assay: cell-based or functional assay
Sequence of human GLP-1 receptor (P43220 24-463): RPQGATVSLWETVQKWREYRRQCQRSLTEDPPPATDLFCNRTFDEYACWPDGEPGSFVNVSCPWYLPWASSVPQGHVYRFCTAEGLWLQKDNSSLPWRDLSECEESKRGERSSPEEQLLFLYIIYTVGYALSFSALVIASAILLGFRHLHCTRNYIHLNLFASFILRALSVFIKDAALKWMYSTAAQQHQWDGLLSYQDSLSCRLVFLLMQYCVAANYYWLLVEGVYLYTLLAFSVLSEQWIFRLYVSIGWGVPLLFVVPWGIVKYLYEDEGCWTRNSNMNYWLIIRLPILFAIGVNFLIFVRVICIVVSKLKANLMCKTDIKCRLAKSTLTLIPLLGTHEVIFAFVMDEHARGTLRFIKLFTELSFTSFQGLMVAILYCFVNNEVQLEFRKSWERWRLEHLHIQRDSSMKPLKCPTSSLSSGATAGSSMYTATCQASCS

[2] = SC 100 nmol/kg once daily, 21 days treatment

| Molecule | half-life ([1]; in vivo, 100 nmol/kg) | EC50, p-ERK in HEK293 cells stably expressing human CCK-B R (human CCK-B receptor) | EC50, cAMP induction in HEK293 cells expressing human GLP-1 R (human GLP-1 receptor) | other results |
| --- | --- | --- | --- | --- |
| CCCCCCCCCCCCCCCC(=O)N[C@@H](CCC(=O)NCCCC[C@H](NC(=O)[C@H](CCC(=O)O)NC(=O)[C@@H](NC(=O)[C@H](Cc1ccccc1)NC(=O)[C@H](CC(C)C)NC(=O)[C@H](CCCNC(=N)N)NC(=O)[C@@H](NC(=O)[C@H](C)NC(=O)[C@H](CCC(=O)O)NC(=O)[C@H](CCC(=O)O)NC(=O)[C@H](CCC(=O)O)NC(=O)[C@H](CC(C)C)NC(=O)[C@H](Cc1ccc(O)cc1)NC(=O)[C@H](CCCCN)NC(=O)[C@H](CO)NC(=O)[C@H](CC(C)C)NC(=O)[C@H](CCC(=O)O)NC(=O)[C@H](CO)NC(=O)[C@@H](NC(=O)[C@H](Cc1ccccc1)NC(=O)[C@@H](NC(=O)CNC(=O)[C@H](CCC(=O)O)NC(=O)CNC(=O)[C@@H](N)Cc1c[nH]cn1)[C@@H](C)O)[C@@H](C)O)C(C)C)[C@@H](C)CC)C(=O)N[C@@H](CC(C)C)C(=O)N[C@@H](CCCCN)C(=O)NCCOCCOCC(=O)NCCOCCOCC(=O)N[C@@H](Cc1ccc(O)cc1)C(=O)NCC(=O)N[C@@H](Cc1c[nH]c2ccccc12)C(=O)N[C@@H](CC(C)C)C(=O)N[C@@H](CC(=O)O)C(=O)N[C@@H](Cc1ccccc1)C(N)=O)C(=O)O [Compound 7] |  |  |  | half-life ([1]; s.c. administration of 100 nmol/kg in mice, plasma, read-out: T1/2 (converted)): 6.2 h |
| CC[C@H](C)[C@H](NC(=O)[C@H](Cc1ccccc1)NC(=O)[C@H](CC(C)C)NC(=O)[C@H](CCCNC(=N)N)NC(=O)[C@@H](NC(=O)[C@H](C)NC(=O)[C@H](CCC(=O)O)NC(=O)[C@H](CCC(=O)O)NC(=O)[C@H](CCC(=O)O)NC(=O)[C@H](CC(C)C)NC(=O)[C@H](Cc1ccc(O)cc1)NC(=O)[C@H](CCCCN)NC(=O)[C@H](CO)NC(=O)[C@H](CC(C)C)NC(=O)[C@H](CCC(=O)O)NC(=O)[C@H](CO)NC(=O)[C@@H](NC(=O)[C@H](Cc1ccccc1)NC(=O)[C@@H](NC(=O)CNC(=O)[C@H](CCC(=O)O)NC(=O)CNC(=O)[C@@H](N)Cc1c[nH]cn1)[C@@H](C)O)[C@@H](C)O)C(C)C)C(=O)N[C@@H](CCC(=O)O)C(=O)N[C@@H](Cc1ccccc1)C(=O)N[C@@H](CC(C)C)C(=O)N[C@@H](CCCCN)C(=O)N[C@@H](CC(=O)O)C(=O)N[C@@H](Cc1ccc(O)cc1)C(=O)NCC(=O)N[C@@H](Cc1c[nH]c2ccccc12)C(=O)N[C@@H](CC(C)C)C(=O)N[C@@H](CC(=O)O)C(=O)N[C@@H](Cc1ccccc1)C(N)=O [Compound 12] | 5 h |  |  |  |
| CC[C@H](C)[C@H](NC(=O)[C@H](Cc1ccccc1)NC(=O)[C@H](CC(C)C)NC(=O)[C@H](CCCNC(=N)N)NC(=O)[C@@H](NC(=O)[C@H](C)NC(=O)[C@H](CCC(=O)O)NC(=O)[C@H](CCC(=O)O)NC(=O)[C@H](CCC(=O)O)NC(=O)[C@H](CC(C)C)NC(=O)[C@H](Cc1ccc(O)cc1)NC(=O)[C@H](CCCCN)NC(=O)[C@H](CO)NC(=O)[C@H](CC(C)C)NC(=O)[C@H](CCC(=O)O)NC(=O)[C@H](CO)NC(=O)[C@@H](NC(=O)[C@H](Cc1ccccc1)NC(=O)[C@@H](NC(=O)CNC(=O)[C@H](CCC(=O)O)NC(=O)CNC(=O)[C@@H](N)Cc1c[nH]cn1)[C@@H](C)O)[C@@H](C)O)C(C)C)C(=O)N[C@@H](CCC(=O)O)C(=O)N[C@@H](Cc1ccccc1)C(=O)N[C@@H](CC(C)C)C(=O)N[C@@H](CCCCN)C(=O)N[C@@H](CC(=O)O)C(=O)NCCOCCOCC(=O)NCCOCCOCC(=O)N[C@@H](Cc1ccc(O)cc1)C(=O)NCC(=O)N[C@@H](Cc1c[nH]c2ccccc12)C(=O)N[C@@H](CC(C)C)C(=O)N[C@@H](CC(=O)O)C(=O)N[C@@H](Cc1ccccc1)C(N)=O [Compound 19] | 2.4 h |  |  |  |
| CC[C@H](C)[C@H](NC(=O)[C@H](Cc1ccccc1)NC(=O)[C@H](CC(C)C)NC(=O)[C@H](CCCNC(=N)N)NC(=O)[C@@H](NC(=O)[C@H](C)NC(=O)[C@H](CCC(=O)O)NC(=O)[C@H](CCC(=O)O)NC(=O)[C@H](CCC(=O)O)NC(=O)[C@H](CC(C)C)NC(=O)[C@H](Cc1ccc(O)cc1)NC(=O)[C@H](CCCCN)NC(=O)[C@H](CO)NC(=O)[C@H](CC(C)C)NC(=O)[C@H](CCC(=O)O)NC(=O)[C@H](CO)NC(=O)[C@@H](NC(=O)[C@H](Cc1ccccc1)NC(=O)[C@@H](NC(=O)CNC(=O)[C@H](CCC(=O)O)NC(=O)CNC(=O)[C@@H](N)Cc1c[nH]cn1)[C@@H](C)O)[C@@H](C)O)C(C)C)C(=O)N[C@@H](CCC(=O)O)C(=O)N[C@@H](Cc1c[nH]c2ccccc12)C(=O)N[C@@H](CC(C)C)C(=O)N[C@@H](CCCCN)C(=O)N[C@@H](CC(=O)O)C(=O)N[C@@H](Cc1ccc(O)cc1)C(=O)NCC(=O)N[C@@H](Cc1c[nH]c2ccccc12)C(=O)N[C@@H](CC(C)C)C(=O)N[C@@H](CC(=O)O)C(=O)N[C@@H](Cc1ccccc1)C(N)=O [Compound 23] | 6.7 h |  |  | body weight gain (in words) (db/db mice; 3 week course of the study): lowered the body weight gain; Fasted BG level (mM) (db/db mice; SC 100 nmol/kg once daily, 16 days treatment): ++ ((++) indicates fasted BG between 6 and 8 mM); Delta-BW (g) (db/db mice; [2]): ++ ((++) indicates delta BW between 4 and 6 g); Delta-HbA1c (%) (db/db mice; [2]): +++ ((+++) indicates delta-HbA1c level below 0%); OGTT, AUC (mM*min) (db/db mice; SC 100 nmol/kg once daily, after 16 days of treatment): ++ ((++) indicates OGTT AUC between 1000 and 2000M*min); plasma levels of HbA1c (in words) (db/db mice; after 3 weeks treatment): lowered the plasma levels of HbA1c; fasting blood glucose levels (in words) (db/db mice; after 16 days treatment): lowered the fasting blood glucose levels; area under the glucose concentration curve (AUC) following an oral glucose challenge (in words) (db/db mice; day 16): lowered the area under the glucose concentration curve (AUC) |
| H-HGEGTFTSELSKYLEEEAVRLFIEWLKNYGWLDF-NH2 [Compound 22] |  |  |  | half-life ([1]; in vivo, s.c. administration of 100 nmol/kg in mice, plasma, read-out: T1/2 (converted)): 8.2 h |
| h[Leu15]Gastrin17 (from UniProt P01350 76-92) (peptide) |  | 2.89 nM |  |  |
| HGEGTFTSELSKYLEEEAVRLFIEWLKNYGWLDF-NH2 [Compound 22] |  | 31 nM | 0.085 nM |  |
| HGEGTFTSDLSKQLEEEAVRLFIECLKNXXYGWLDF (not fully specified; C(PEG5K) at position 25; 8Ado at positions 29 and 30; C-terminal amide (-NH2)) [Compound 38] |  | 61 nM | 0.037 nM |  |
| HGEGTFTSELSKYLEEEAVRLFIEC(PEG20K)LK[AEEA][AEEA]YGWLDF-NH2 (not fully specified) [Compound 40] |  | 133 nM | 0.37 nM |  |
